This passage reports melting point results from a melting point compilation (Tetko et al.; mined from patent text by program, amines drawn as free bases though some values may be those of a salt).

SMILES strings stand for the structures.

What is called melting point is the temperature, or range, at which the solid turns liquid. `CNC(=O)C(CCn1c(COc2ccc(Cl)cc2)nc2c(C)cccc21)Cc1ccccc1` (stereo unspecified) showed a melting point of 169 to 170 °C.

Compound `COC(=O)NNC(=S)Cc1ccc(C(C)(C)C)cc1` came in with a melting point of 93.5 to 94 °C. Regarding `O=C(O)C1CSC(C2CCCCC2)N1` (mixture of isomers), the melting point turned out to be 248 °C. The result for `CCOC(=O)c1ccc(-c2cnc3c(c2)N(Cc2c(Cl)cccc2Cl)C(=O)CN3)cc1` reads 226 °C. Regarding `Clc1cc(Br)c2ccccc2c1Cl`, the melting point was 84 to 86 °C. Under `O=C(c1ccc(Cl)c(Cl)c1)c1ccc(O)c(Cl)c1Cl` stands 179 to 180 °C.

For the compound `COc1ccc2c(c1)CCC1C2CCC2(C)C(=O)CC(C(C)C)C12` (stereo unspecified), the melting point fell in the range of 104 to 108 °C.

As for `CC(=O)C1Oc2cc3c(cc2O1)=NC(F)(F)N=3`, the melting point was greater than 220 °C.

On to `CCC(=O)N=C(NC(=O)OC)Nc1cc(Oc2ccccc2)ccc1NC(C)=O`, for which the melting point is 161 to 163 °C. Take `CC(Br)C(=O)c1ccc(OCc2ccccc2)c(CO)c1` (stereo unspecified): the melting point amounted to 80 °C. For `C[C@@H](SCC(N)=O)[C@](O)(Cn1cncn1)c1ccc(F)cc1F`, the melting point lay in the range of 144 to 145 °C. In turn, `O=C(O)CCCCCSC1=CCCC1=O` returned a melting point of 77.5 to 78 °C.

For `CC(=O)OC1CSC(Oc2ccnc(-c3ccc(F)cc3C)c2)C(OC(C)=O)C1OC(C)=O` (stereo unspecified), the melting point is 137 °C.

In turn, `COC1CCCn2c1nc(C)c(CCN1CCC(c3noc4cc(F)ccc34)CC1)c2=O` (stereo unspecified) had a melting point of 131 °C. `CC1(C)C(C(=O)O)C1C(OS(C)(=O)=O)C(Br)(Br)Br` (stereo unspecified) came in with a melting point of 168 °C. Turning to `COc1ccc2c(c1OC(C)=O)N=CC1CCCN1C2=O` (stereo unspecified), the melting point fell in the range of 144 to 146 °C. The compound `CCCCc1nc2cnc3cccnc3c2n1CCOc1ccccc1` had a melting point of 150 °C. `NNc1nc(C(F)(F)F)nc(-c2ccccc2)c1-c1ccccc1` yielded a melting point of 182 to 186 °C. As to `CC(C)N1C(=O)NCc2c(-c3ccccc3)cccc21`, the melting point was in the range of 182 to 183 °C. As for `COC(=O)C(Oc1nc(OC)cc(OC)n1)C(C)(N=[N+]=[N-])c1ccccc1` (stereo unspecified), the melting point lay in the range of 118 to 120 °C. Take `O=Cc1ccc2c3ccccc3c3ccccc3c2c1`: the melting point is 160 to 162 °C. The result for `N#Cc1ccc(CNC(=O)c2ccc(C=O)cc2)cc1` reads 170 °C; that for `CCCc1nc2c(N)nc3cc(Oc4ccccc4C(=O)OC)ccc3c2n1CC(C)C`, 167 to 168 °C.

Consider `COCCc1nc2c(N)nc3cc(-c4ccsc4)ccc3c2n1CC(C)(C)O`, for which the melting point was 233 to 234 °C. In turn, `OCCCCCCCCCCCC(F)(F)C(F)(F)F` displayed a melting point of 41 to 43 °C. Turning to `Cc1cc(N2CCC(N3CCCC3C)C2)ccc1C(=O)NC1CCOCC1` (stereo unspecified), the melting point stood at 147 °C. Turning to `CCN(C)c1cc(OC)c(C(=O)NC2CCN(Cc3ccccc3)C2)cc1Cl` (stereo unspecified), the melting point lay within 76 to 77 °C.

Regarding `C=CCC12CC(=O)N(C)C1(O)CCc1ccc(OCc3ccccc3)cc12` (stereo unspecified), the melting point was in the range of 188 to 190 °C. Under `CCC(OC)C1(OC)OC12CO2` (stereo unspecified) stands 68 to 70 °C; under `O=C(O)CNC(=Nc1ccc(C(=O)O)cc1)NCC1CCCCC1`, 164 °C.

`CN1C(=O)C(c2ccc(Cl)cc2)SC1c1cccnc1` (stereo unspecified) yielded a melting point of 77.5 to 79 °C. `COC(=O)c1c(N)c2ccccc2[nH]c1=O` gave a melting point of 236 °C. The result for `Cc1c(F)c([N+](=O)[O-])cc2c(=O)c(C(=O)O)cn(-c3cc(N)c(F)cc3F)c12` reads 250 to 252 °C; that for `N#Cc1cccc(Oc2ccccc2)c1C#N`, 110 to 112 °C; that for `COCc1c(C(O)c2ccccc2)ncc2[nH]c3ccc(OCc4ccccc4)cc3c12` (stereo unspecified), 190 to 191 °C. In turn, `CC(C)c1cccc(C(C)C)c1-n1nn[nH]c1=O` registered a melting point of 177 to 178 °C. The result for `CC(=O)N1CCc2cc(S(=O)(=O)n3c(CCC(=O)O)cc4nc(Cl)ccc43)ccc21` reads 216 °C; that for `CC(C)(C)OC(=O)N1C(=O)O[C@@H](c2ccncc2)[C@H]1Cc1ccc(C(F)(F)F)cc1` (racemic), 166 to 168 °C.

Compound `CC(C)OC(=O)C(C(=O)OC(C)C)=C1SC2C(S1)N(C(C)C)CCN2C(C)C` (stereo unspecified) gave a melting point of 82 to 84 °C. Under `COC1c2ccccc2C(=O)N1CCN1CCC(Cc2c[nH]c3ccc(F)cc23)CC1` (racemic) stands 175 °C; under `CC(C)(CCc1ccc(Cl)c(Cl)c1)CC(=O)O`, 106 to 108 °C; under `CCCCC(CC)C(=O)Nc1ccc2ccn(Cc3ccc(C(=O)OC)cc3)c2c1` (stereo unspecified), 139 to 141 °C. `CC(CC(C#N)(c1ccccc1)c1ccccn1)N1CCN(C)CC1` (stereo unspecified) yielded a melting point of 89 to 90 °C. The compound `O=[N+]([O-])c1c(OCc2ccccc2)ccnc1F` returned a melting point of 96 to 98 °C. `COc1cccc2c1CC(C#N)CC2` (stereo unspecified) yielded a melting point of 66 to 68 °C. `CC(=O)c1cc2c(C(C)=O)c(OCC(O)CNC(C)(C)C)ccc2o1` (stereo unspecified) yielded a melting point of 122 °C. For the compound `CCCCC[C@@H](CNC(=O)Nc1c(OC(C)C)c(C)nn1C(C)(C)C)c1cccc2c1OCO2`, the melting point fell in the range of 98.5 to 99 °C. With `CC(C)(C)c1cc(CNC(=O)Nc2cccc(C(F)(F)F)c2)nn1-c1ccc(S(C)(=O)=O)cc1`, the melting point is 162 to 165 °C. Under `COC(=O)c1cccc([N+](=O)[O-])c1C` stands 64.2 to 65.5 °C; under `COc1cc(NS(C)(=O)=O)cc(OC)c1-c1ccc(C[C@H](NC(=O)c2c(Cl)cccc2Cl)C(=O)O)cc1`, 154 to 155 °C.

With `CC(=O)CSC1=CC(=O)CC(c2ccccc2Cl)C1` (stereo unspecified), the melting point lay in the range of 81 to 82 °C. For `O=C(O)c1ccc2cc(OCCC(c3ccccc3)(c3ccccc3)c3ccccc3)ccc2c1`, the melting point lay in the range of 243 to 244 °C. `CCCCCC(=O)NCCc1ccc(S(=O)(=O)NC(=O)c2ccc(C(=O)NCC(=O)OC)nc2)cc1` gave a melting point of 128 to 130 °C. Compound `CCOc1ccc(Br)c(F)c1Cl` returned a melting point of 65.4 to 66.1 °C. As to `COc1ncnc(OC)c1NC(=O)c1cccs1`, the melting point fell in the range of 198 to 200 °C. Consider `CCCc1c(COc2ccc(Cc3nnnn3CC(=O)O)cc2)ccc(C(C)=O)c1O`, for which the melting point was in the range of 205 to 210 °C. Compound `CCCN(CCC)Sc1nc2ccccc2s1` returned a melting point of 57 to 59 °C. Take `C=CCNC(=O)c1c(O)c2ccc(Cl)cc2n(C)c1=N`: the melting point lay within 212 to 214 °C. As for `Clc1ccccc1C1=NN=C(c2ccccc2Cl)C(c2ccccc2)C1` (stereo unspecified), the melting point fell in the range of 151 to 153 °C. `COc1ccc(Nc2ccc(Nc3ncnc4ccsc34)cc2)cc1` returned a melting point of 181 to 186 °C. `CC(C)(O)Cn1c(CO)nc2c(N)nc3cc(-c4ccc(F)c(F)c4)cnc3c21` displayed a melting point of 256 to 258 °C. The result for `CC(C)(C)OC(=O)[C@@H]1CS[C@H](c2ccccc2F)N1C(=O)CNC(=O)Nc1cccc(CC(=O)O)c1` reads 110 °C; that for `CN1CCN(Cc2c(-c3ccc4sc(=O)n(C)c4c3)nc3ccccn23)CC1`, 191 to 193 °C. `CCCCN1CCC(COC(=O)c2cc(Cl)c(N)cc2OC)C(O)C1` (stereo unspecified) showed a melting point of 121 °C. The compound `COc1cc2c(cc1OC)CC(NC(=O)C1CCCN1)CC2` (stereo unspecified) yielded a melting point of 108 to 109 °C. In turn, `O=C1CC2(CCCCC2)CC(=O)N1c1ccncc1` returned a melting point of 213 to 215 °C. In the case of `Clc1ccc2c(c1)N=C(NCc1cccnc1)c1ccccc1S2`, the melting point is 152 to 153 °C. Under `COc1ccc(-c2nc(-c3nccn3Cc3ccccc3)[nH]c2-c2ccc(OC)cc2)cc1` stands 180 °C; under `COC(=O)Cc1cc(N=O)c2[nH]ccc2c1`, 110 to 111 °C. As to `Cc1c(F)c(N2CCN(C=O)C(C)C2)cc2c1C(=O)C(C=O)CN2C1CC1` (stereo unspecified), the melting point fell in the range of 148 to 150 °C.

Turning to `Cc1cccc([N+](=O)[O-])c1C=NO`, the melting point was 190 to 192 °C. With `CCCCCn1c2ccc(C(=O)O)cc2c2ccc(SC)cc21`, the melting point fell in the range of 211 to 212 °C. Under `CC1=CC(c2cccc(F)c2)C2=C(CCCC2=O)N1` (stereo unspecified) stands 216 to 218 °C; under `C=Cn1c(C)c(C)c2cnnc(OCc3ccccc3)c21`, 85 to 86 °C; under `CC(C)N(Cc1cnc(-c2ncn3c2CN(C)C(=O)c2cc(F)ccc2-3)o1)C(C)C`, 176 to 178 °C. In turn, `CC(C(=O)N(C)C)n1c(-c2ccc(Cl)cc2)nc2cccnc21` (stereo unspecified) displayed a melting point of 124 to 126 °C. As to `CNC(=O)c1cn(-c2cc3c(=O)n(NS(C)(=O)=O)c(=O)[nH]c3cc2C(F)(F)F)cn1`, the melting point is 292 to 295 °C. Compound `CC(=O)NC1(c2ccc(CN3CCN(c4cccc(F)n4)CC3)cc2)CC1` showed a melting point of 135 to 136 °C. `CS(=O)(=O)NCCn1c2ccccc2c(=O)c2ccccc21`: the melting point lay within 226 to 227 °C. Under `C=C(C)C(=O)NC1=NN(c2ccc(Cl)c(Cl)c2)C(=O)C1` stands 212 to 213 °C; under `COc1ccc(CC(O)c2cc(OC)cc(OC)c2)cc1` (stereo unspecified), 101 to 102 °C; under `Cn1cc(-c2cccc(Cl)c2)c(=O)o1`, 131 °C. `COC(=O)[C@H](Cc1ccc(O)c(C2SCCS2)c1)NC(C)=O` registered a melting point of 97 to 99 °C. `C/C(=C(\C#N)C(=S)/N=C/N(C)C)N1CCCN(c2ccc(Cl)cc2)CC1` returned a melting point of 259 to 264 °C.

`CCN(CC)S(=O)(=O)c1cc(C)c2c(c1)S(=O)(=O)NC(C1CCCCC1)=N2` showed a melting point of 206 to 208 °C. `CSc1ccc(C(=O)NC[C@H]2O[C@@H]2c2ccccc2)cc1` (racemic): the melting point came out at 110 °C. The compound `COc1c(C)cc(N=C=S)cc1C(=S)N(C)C` came in with a melting point of 74 to 75 °C. The result for `COc1ccc2c(c1)C13CCN(C#N)C(C2)C1(OC)CCC(=O)C3` (stereo unspecified) reads 172 to 176 °C; that for `O=C(N=NC=C(Cl)Cl)c1ccccc1`, 50 to 51 °C. Under `CN1Cc2c(C(=O)NN)ncn2-c2ccc(F)cc2C1=O` stands 288 to 290 °C; under `CSc1cc(C)nc(SC)c1NC(=O)CCCCCCCSc1nc2ccccc2s1`, 104 to 108 °C.
